How the values were obtained:
Mus musculus [1] = assay: Increased Magnesium ion level in 0.5 M MgSO4 loaded ([…] p.o.) mice at a concentration of 25 mg/kg administered perorally; type: functional; settings: route oral
Mus musculus [2] = assay: Serum Magnesium ion level in 0.5 M MgSO4 loaded ([…] p.o.) mice at a concentration of 25 mg/kg administered perorally; type: functional, organism-based; parameters: dose 25 mg/kg
Mus musculus [3] = assay: Increased Magnesium ion level in 0.5 M MgSO4 loaded ([…] p.o.) mice at a concentration of 5 mg/kg administered perorally; type: functional; settings: route oral
Mus musculus [4] = assay: Increased Magnesium ion level in 0.5 M MgSO4 loaded ([…] p.o.) mice at a concentration of 12.5 mg/kg administered perorally; type: functional; settings: route oral
Mus musculus [5] = assay: Serum Magnesium ion level in 0.5 M MgSO4 loaded ([…] p.o.) mice at a concentration of 5 mg/kg administered perorally; type: functional, organism-based; parameters: dose 5 mg/kg
Mus musculus [6] = assay: Serum Magnesium ion level in MgSO4 unloaded mice at a concentration of 25 mg/kg administered perorally; type: functional, organism-based; parameters: dose 25 mg/kg
Mus musculus [7] = assay: Serum Magnesium ion level in 0.5 M MgSO4 loaded ([…] p.o.) mice at a concentration of 12.5 mg/kg administered perorally; type: functional, organism-based; parameters: dose 12.5 mg/kg
Mus musculus [8] = assay: Serum Magnesium ion level in 0.5 M MgSO4 loaded ([…] p.o.) mice at a concentration of 25 mg/kg administered perorally.; type: functional, organism-based; parameters: dose 25 mg/kg
Mus musculus [9] = assay: Increased Magnesium ion level in 0.5 M MgSO4 loaded ([…] p.o.) mice pretreatment with Insulin (1U/kg, s.c) at a concentration of 12.5 mg/kg administered perorally; type: functional; settings: route oral
Mus musculus [10] = assay: Increased Magnesium ion level in 0.5 M MgSO4 loaded ([…]) mice pretreatment with Indomethacin (10 mg/kg, s.c) at a concentration of 12.5 mg/kg administered perorally; type: functional; settings: route oral
Mus musculus [11] = assay: Increased Magnesium ion level in 1.67 M MgSO4 loaded ([…] p.o.) mice at a concentration of 50 mg/kg administered perorally; type: functional; settings: route oral
Mus musculus [12] = assay: Increased Magnesium ion level in 1.67 M MgSO4 loaded ([…] p.o.) mice pretreatment with STZ (100 mg/kg, i.v.) at a concentration of 50 mg/kg administered perorally; type: functional; settings: route oral
Mus musculus [13] = assay: Serum Magnesium ion level in 0.5 M MgSO4 loaded ([…] p.o.) mice pretreatment with Indomethacin (10 mg/kg, s.c) at a concentration of 12.5 mg/kg administered perorally; type: functional, organism-based; parameters: dose 12.5 mg/kg
Mus musculus [14] = assay: Serum Magnesium ion level in 0.5 M MgSO4 loaded ([…] p.o.) mice pretreatment with Insulin (1U/kg, s.c) at a concentration of 12.5 mg/kg administered perorally; type: functional, organism-based; parameters: dose 12.5 mg/kg
Mus musculus [15] = assay: Serum Magnesium ion level in 1.67 M MgSO4 loaded ([…] p.o.) mice at a concentration of 50 mg/kg administered perorally; type: functional, organism-based; parameters: dose 50 mg/kg
Mus musculus [16] = assay: Serum Magnesium ion level in 1.67 M MgSO4 loaded ([…] p.o.) mice pretreatment with STZ (100 mg/kg, i.v.) at a concentration of 50 mg/kg administered perorally; type: functional, organism-based; parameters: dose 50 mg/kg

Row | Structure (SMILES) | Increase (Mus musculus [1]) [%] | Serum Mg2+ level (Mus musculus [2]) | Increase (Mus musculus [3]) [%] | Increase (Mus musculus [4]) [%] | Serum Mg2+ level (Mus musculus [5]) | Serum Mg2+ level (Mus musculus [6]) | Serum Mg2+ level (Mus musculus [7]) | Serum Mg2+ level (Mus musculus [8]) | Increase (Mus musculus [9]) [%] | Increase (Mus musculus [10]) [%] | Increase (Mus musculus [11]) [%] | Increase (Mus musculus [12]) [%] | Serum Mg2+ level (Mus musculus [13]) | Serum Mg2+ level (Mus musculus [14]) | Serum Mg2+ level (Mus musculus [15]) | Serum Mg2+ level (Mus musculus [16])
1 | CC1(C)CC2C3=CCC4[C@@]5(C)CC[C@H](O[C@@H]6OC(C(=O)O)C(O[C@@H]7OC(CO)C(O)[C@@H](O)[C@@H]7O)[C@@H](O)[C@@H]6O[C@@H]6OCC(O)[C@@H](O)[C@@H]6O)[C@](C)(CO)C5CC[C@@]4(C)[C@]3(C)C[C@@H](O)[C@@]2(CO)[C@@H](O)[C@@H]1O (stereo partly specified) | 3 | 3.4 |  |  |  |  |  |  |  |  |  |  |  |  |  | 
2 | C/C=C(\C)C(=O)O[C@H]1[C@H](OC(C)=O)[C@@]2(CO)C(CC1(C)C)C1=CCC3[C@@]4(C)CC[C@H](O[C@@H]5OC(C(=O)O)C(O[C@@H]6OC(CO)C(O)[C@@H](O)[C@@H]6O)[C@@H](O)[C@@H]5O[C@@H]5OC(CO)C(O)[C@@H](O)[C@@H]5O)[C@](C)(CO)C4CC[C@@]3(C)[C@]1(C)C[C@H]2O (stereo partly specified) | 9.1 |  | 9.1 | 0 | 3.6 | 3.1 | 3.3 | 3.6 |  |  |  |  |  |  |  | 
3 | C/C=C(/C)C(=O)O[C@H]1[C@H](OC(C)=O)[C@@]2(CO)C(CC1(C)C)C1=CCC3[C@@]4(C)CC[C@H](O[C@@H]5OC(C(=O)O)C(O[C@@H]6OC(CO)C(O)[C@@H](O)[C@@H]6O)[C@@H](O)[C@@H]5O[C@@H]5OC(CO)C(O)[C@@H](O)[C@@H]5O)[C@](C)(CO)C4CC[C@@]3(C)[C@]1(C)C[C@H]2O (stereo partly specified) | 24.2 | 4.1 | 12.1 | 18.2 | 3.7 | 3.1 | 3.9 |  | 30.8 | 34.4 | 38.6 | 26 | 4.3 | 5.1 | 7.9 | 6.3
4 | C/C=C(\C)C(=O)O[C@H]1[C@H](OC(C)=O)[C@@]2(CO)C(CC1(C)C)C1=CCC3[C@@]4(C)CC[C@H](O[C@@H]5O[C@H](C(=O)O)[C@@H](O[C@@H]6O[C@H](CO)[C@@H](O)[C@H](O)[C@H]6O)[C@H](O)[C@H]5O[C@@H]5OC[C@@H](O)[C@H](O)[C@H]5O)[C@](C)(CO)C4CC[C@@]3(C)[C@]1(C)C[C@H]2O (stereo partly specified) [AESCIN] | 12.5 | 3.6 | -6.3 | -3.1 | 3 | 3.1 | 3.1 |  |  |  |  |  |  |  |  | 

From ChEMBL document CHEMBL1132096, “Structure-related enhancing activity of escins Ia, Ib, IIa and IIb on magnesium absorption in mice” (1999)
